Laboratory results taken from US20250051355A1, “COMPOUNDS, COMPOSITIONS, AND METHODS” (ACONCAGUA BIO, INC., priority 2023, published 2025).
pEC50: −log10 of the molar value.

Tests used:
[1] = molecular target: human calcitonin receptor (CTR) and RAMP3 (AMY3) (Homo sapiens, UniProt O60896+P30988); assay: Amylin Receptor cAMP Assay I; type: cell-based; conditions: COS-7/AMY3 cells, cAMP Hi-range Kit, read-out: Amylin Receptor cAMP Stimulation Activity: EC50
From the text: Amylin Receptor cAMP Assay I
AMYRs are heterodimers of the class B calcitonin (CT) G-protein-coupled receptor (CTR) and receptor activity-modifying proteins (RAMPs). All three RAMPs can interact with the CTR and form AMY1, AMY2, AMY3 with RAMP1, RAMP2 and RAMP3, respectively. Like other class B1 GPCRs, the CT receptor family is canonically coupled to Gs-mediated cAMP production, and measurement of cAMP accumulation has been the primary assay used to determine peptide selectivity and potency.
To optimize functional activity directed toward Gas coupling, COS-7 cells were stably transfected with human calcitonin receptor (CTR) and RAMP3, simultaneously. 100×concentration of compound working solutions were prepared (Agilent Technologies Bravo) with 4-fold serial dilution in 384-well Echo LDV plate (Labcyte, Cat #LP-0200). 100 nL/well 100× concentration of compound working solutions were moved to 384-well white low volume plate (Greiner, Cat #784075) using Labcyte ECHO550. 1×10^5 cells/mL COS-7/CTR or COS-7/AMY3 (HD Biosciences) cell suspensions prepared with assay buffer [DPBS containing 0.5 mM IBMX (Sigma, Cat #15879) and 0.1% BSA (GENVIEW, Cat #FAO16-100 g)], 10 μL cell suspensions were added to each well of previous generated assay plate which already contains 100 nL compound at 100× concentration using ThermoFisher Multidrop Combi (1000 cells/well). Seal the plate and incubate at 37° C. with 5% CO2 for 30 min.
After incubation, the cAMP assay signal was generated using cAMP Hi-range Kit (Cisbio). 5 μL cAMP-d2 working solution was added to each well, followed by 5 μL Anti-cAMP antibody-cryptate working solution which was added to each well using ThermoFisher Multidrop Combi. The samples were then incubated at room temperature for 1 hour protected from light. the fluorescence was read at 665 and 615 nm with Reader PerkinElmer EnVision.

[2] = molecular target: T1, human calcitonin receptor (CTR) (Homo sapiens, UniProt P30988); assay: Calcitonin receptor (CTR) cAMP Assay; type: cell-based; conditions: COS7-human CTR Clone #2 cells, cAMP dynamic 2 kit; read-out: Calcitonin Receptor cAMP Stimulation Activity: EC50
T1 construct: expressed in transfected cells; host or cells: COS-7 (COS7-human CTR Clone #2)
T1 sequence (P30988 25-474): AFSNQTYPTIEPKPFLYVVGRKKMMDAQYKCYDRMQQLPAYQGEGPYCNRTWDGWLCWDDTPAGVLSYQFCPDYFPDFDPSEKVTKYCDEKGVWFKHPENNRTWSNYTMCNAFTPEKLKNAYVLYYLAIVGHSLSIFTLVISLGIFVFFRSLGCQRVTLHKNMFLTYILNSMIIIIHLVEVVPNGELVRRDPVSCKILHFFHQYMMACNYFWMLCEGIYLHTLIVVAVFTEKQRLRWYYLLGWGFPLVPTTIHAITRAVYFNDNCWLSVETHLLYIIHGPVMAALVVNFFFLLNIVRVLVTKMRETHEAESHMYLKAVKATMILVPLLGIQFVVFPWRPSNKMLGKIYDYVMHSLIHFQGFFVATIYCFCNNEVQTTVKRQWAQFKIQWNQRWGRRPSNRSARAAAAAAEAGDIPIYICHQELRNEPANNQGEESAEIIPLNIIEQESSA
Method in brief: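 COS-7 cells stably expressing human CTR (2000 cells/well) treated with 4-fold serially diluted compounds in HBSS/20 mM HEPES/0.5 mM IBMX/0.1% casein, 30 min at 37° C. cAMP quantified by HTRF (cAMP-d2 plus anti-cAMP cryptate, 1 h RT), fluorescence read at 665 and 615 nm.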

Sequence of human calcitonin receptor (CTR) and RAMP3 (AMY3) (O60896 24-148, one chain of several): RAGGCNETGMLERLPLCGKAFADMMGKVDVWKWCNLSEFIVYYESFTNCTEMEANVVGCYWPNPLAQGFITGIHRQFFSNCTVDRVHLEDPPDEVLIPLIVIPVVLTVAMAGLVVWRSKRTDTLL

pEC50 [1]	pEC50 [2]	Compound
6.89	7.51	Cc1nnc(-c2c(CCC3CCOCC3)nc3c(c2-c2ccc(C(=O)NCc4ccc(F)c(F)c4)s2)C(=O)N2CCC[C@@H]32)o1 [Compound 29]
7.36	8.43	Cc1nnc(-c2c(CCc3ccc(F)cc3)nc3c(c2-c2ccc(C(=O)NCc4ccc(F)c(F)c4)s2)C(=O)N[C@H]3C(C)C)o1 [Compound 1, N-(3,4-difluorophenyl)methyl-5-{(S)-5-[2-(p-fluorophenyl)ethyl]-3-isopropyl-6-(5-methyl-1,3,4-oxadiazol-2-yl)-1-oxo-2,4-diaza-7-indanyl)-2-thenamide]
7.32	8.35	Cc1nnc(-c2c(CCc3ccc(F)cc3)nc3c(c2-c2ccc(C(=O)NCc4ccc(F)c(F)c4)s2)C(=O)N2CCC[C@@H]32)o1 [Compound 4, (S)—N-(3,4-difluorobenzyl)-5-(2-(4-fluorophenethyl)-3-(5-methyl-1,3,4-oxadiazol-2-yl)-5-oxo-7,8,9,9a-tetrahydro-5H-pyrido[2,3-a]pyrrolizin-4-yl)thiophene-2-carboxamide]
6.75	7.41	Cc1nnc(-c2c(CCC3CCCOC3)nc3c(c2-c2ccc(C(=O)NCc4ccc(F)c(F)c4)s2)C(=O)N2CCC[C@@H]32)o1 (stereo partly drawn) [Compound 61, N-(3,4-difluorobenzyl)-5-((9aS)-3-(5-methyl-1,3,4-oxadiazol-2-yl)-5-oxo-2-(2-(tetrahydro-2H-pyran-3-yl)ethyl)-7,8,9,9a-tetrahydro-5H-pyrido[2,3-a]pyrrolizin-4-yl)thiophene-2-carboxamide]
6.89	7.12	Cc1nnc(-c2c(COc3ccc(F)cc3)nc3c(c2-c2ccc(C(=O)NCc4ccc(F)c(F)c4)s2)C(=O)N2CCC[C@@H]32)o1 [Compound 7, (S)—N-(3,4-difluorobenzyl)-5-(2-((4-fluorophenoxy)methyl)-3-(5-methyl-1,3,4-oxadiazol-2-yl)-5-oxo-7,8,9,9a-tetrahydro-5H-pyrido[2,3-a]pyrrolizin-4-yl)thiophene-2-carboxamide]
7.18	8.26	Cc1nnc(-c2c(CCc3ccc(F)cc3)nc3c(c2-c2ccc(C(=O)NCc4ccc(F)c(F)c4)s2)S(=O)(=O)N2CCC[C@@H]32)o1 [Compound 17, (S)—N-(3,4-difluorobenzyl)-5-(2-(4-fluorophenethyl)-3-(5-methyl-1,3,4-oxadiazol-2-yl)-5,5-dioxido-7,8,9,9a-tetrahydropyrrolo[1′,2′:2,3]isothiazolo[4,5-b]pyridin-4-yl)thiophene-2-carboxamide]
6.94	7.85	Cc1nnc(-c2c(CCc3ccc(F)cc3F)nc3c(c2-c2ccc(C(=O)NCc4ccc(F)c(F)c4)s2)C(=O)N2CCC[C@@H]32)o1 [Compound 42, 5-[(9aS)-2-[2-(2,4-difluorophenyl)ethyl]-3-(5-methyl-1,3,4-oxadiazol-2-yl)-5-oxo-7,8,9,9a-tetrahydropyrido[2,3-a]pyrrolizin-4-yl]-N-[(3,4-difluorophenyl)methyl]thiophene-2-carboxamide]
7.48	8.15	Cc1nnc(-c2c(CCc3ccc(F)cc3)nc3c(c2-c2ccc(C(=O)NCc4ccc(F)c(F)c4)s2)C(=O)N[C@@H]3C(C)C)o1 [Compound 2, N-(3,4-difluorophenyl)methyl-5-((R)-5-[2-(p-fluorophenyl)ethyl]-3-isopropyl-6-(5-methyl-1,3,4-oxadiazol-2-yl)-1-oxo-2,4-diaza-7-indanyl}-2-thenamide]
7.60	8.28	Cc1nnc(-c2c(CCc3ccc(F)cc3)nc3c(c2-c2ccc(C(=O)NCc4ccc(F)c(F)c4)s2)S(=O)(=O)CC3C(C)C)o1 (stereo not shown) [Compound 19, N-(3,4-difluorobenzyl)-5-(5-(4-fluorophenethyl)-3-isopropyl-6-(5-methyl-1,3,4-oxadiazol-2-yl)-1,1-dioxido-2,3-dihydrothieno[3,2-b]pyridin-7-yl)thiophene-2-carboxamide]
6.09	7.35	Cc1nnc(-c2c(CCC3CCOCC3)nc3c(c2-c2cc4ccnc(NCc5cccc(F)c5)c4s2)C(=O)N2CCC[C@@H]32)o1 [Compound 70]
7.11	8.55	Cc1nnc(-c2c(CCC3CCOCC3)nc3c(c2-c2cc4ccnc(NCc5ccc(F)c(F)c5)c4s2)C(=O)N2CCC[C@@H]32)o1 [Compound 63]
7.27	7.82	Cc1nnc(-c2c(CC(C)c3ccc(F)cc3)nc3c(c2-c2ccc(C(=O)NCc4ccc(F)c(F)c4)s2)C(=O)N2CCC[C@@H]32)o1 (stereo partly drawn) [Compound 9, N-(3,4-difluorobenzyl)-5-((9aS)-2-(2-(4-fluorophenyl)propyl)-3-(5-methyl-1,3,4-oxadiazol-2-yl)-5-oxo-7,8,9,9a-tetrahydro-5H-pyrido[2,3-a]pyrrolizin-4-yl)thiophene-2-carboxamide]
7.05	7.77	Cc1nnc(-c2c(CCc3ccc(F)cc3)nc3c(c2-c2ccc(C(=O)NCc4ccc(F)c(F)c4)s2)c(=O)n2n3CCC2)o1 [Compound 15, N-(3,4-difluorophenyl)methyl-5-(11-[2-(p-fluorophenyl)ethyl]-10-(5-methyl-1,3,4-oxadiazol-2-yl)-7-oxo-2,6,12-triazatricyclo[6.4.0.0^2,6]dodeca-1(12),8,10-trien-9-yl}-2-thenamide]
7.69	–	Cc1nnc(-c2c(CCc3ccc(F)cc3)nc3c(c2-c2cc4ccnc(NCc5ccc(F)c(F)c5)c4s2)C(=O)N2CCC[C@@H]32)o1 [Compound 40, (S)-4-(7-((3,4-difluorobenzyl)amino)thieno[2,3-c]pyridin-2-yl)-2-(4-fluorophenethyl)-3-(5-methyl-1,3,4-oxadiazol-2-yl)-7,8,9,9a-tetrahydro-5H-pyrido[2,3-a]pyrrolizin-5-one]
7.51	8.70	Cc1nnc(-c2c(CCc3ccc(F)cc3)nc3c(c2-c2ccc(C(=O)NCc4ccc(F)c(F)c4)s2)S(=O)(=O)N[C@H]3C(C)C)o1 [Compound 18, (S)—N-(3,4-difluorobenzyl)-5-(5-(4-fluorophenethyl)-3-isopropyl-6-(5-methyl-1,3,4-oxadiazol-2-yl)-1,1-dioxido-2,3-dihydroisothiazolo[4,5-b]pyridin-7-yl)thiophene-2-carboxamide]
6.90	–	Cc1nnc(-c2c(CC(F)c3ccc(F)cc3)nc3c(c2-c2ccc(C(=O)N[C@@H]4CCc5ccccc54)s2)C(=O)N2CCC[C@@H]32)o1 (stereo partly shown) [Compound 52]
6.42	–	Cc1nnc(-c2c(CC3(c4ccc(F)cc4)CC3)nc3c(c2-c2ccc(C(=O)NCc4ccc(F)c(F)c4)s2)C(=O)N2CCC[C@@H]32)o1 [Compound 49, (S)—N-(3,4-difluorobenzyl)-5-(2-((1-(4-fluorophenyl)cyclopropyl)methyl)-3-(5-methyl-1,3,4-oxadiazol-2-yl)-5-oxo-7,8,9,9a-tetrahydro-5H-pyrido[2,3-a]pyrrolizin-4-yl)thiophene-2-carboxamide]
